This is an account of results in patent publication US20080269213A1, “8-Hydroxyquinoline compounds and methods thereof” (Wyeth, priority 2006, published 2008).

One experiment deals with T1, Agg-1 (Homo sapiens, UniProt O75173).
T1 sequence (O75173 213-837): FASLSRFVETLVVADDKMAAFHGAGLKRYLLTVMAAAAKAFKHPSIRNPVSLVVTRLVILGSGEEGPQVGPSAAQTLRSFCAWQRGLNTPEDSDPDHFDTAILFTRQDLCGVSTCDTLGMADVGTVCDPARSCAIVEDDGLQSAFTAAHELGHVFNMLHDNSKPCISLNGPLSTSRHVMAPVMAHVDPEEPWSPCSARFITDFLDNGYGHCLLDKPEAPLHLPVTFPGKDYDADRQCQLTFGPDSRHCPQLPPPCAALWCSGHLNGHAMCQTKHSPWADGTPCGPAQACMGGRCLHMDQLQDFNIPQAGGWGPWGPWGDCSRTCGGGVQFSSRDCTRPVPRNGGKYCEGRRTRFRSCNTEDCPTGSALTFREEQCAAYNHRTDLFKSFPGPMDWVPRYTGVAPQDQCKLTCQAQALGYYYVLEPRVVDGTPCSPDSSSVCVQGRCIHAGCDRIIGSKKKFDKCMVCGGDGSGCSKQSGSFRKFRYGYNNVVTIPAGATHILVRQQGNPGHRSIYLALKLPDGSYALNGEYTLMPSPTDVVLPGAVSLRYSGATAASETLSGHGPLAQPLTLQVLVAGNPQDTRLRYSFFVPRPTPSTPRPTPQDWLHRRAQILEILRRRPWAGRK
The experiment in a line: Agg-1 FRET assay. It counts as biochemical. The note with it: for inhibition at 22.2 µM: @ 22200 nM; for IC50: read-out: Agg1 IC50. An excerpt:
The Agg-1/Agg-2 FRET data for N-[(8-hydroxyquinolin-2-yl)(phenyl)methyl]-2-phenoxyacetamide and 2-{[(phenoxyacetyl)amino](phenyl)methyl}quinolin-8-yl phenoxyacetate is presented in Table 1.

For experiment [1], the target named is T2, recombinant human Aggrecanase-2 Agg2-Phe628 (Homo sapiens, UniProt Q9UNA0).
T2 sequence (Q9UNA0 262-628 limits assumed): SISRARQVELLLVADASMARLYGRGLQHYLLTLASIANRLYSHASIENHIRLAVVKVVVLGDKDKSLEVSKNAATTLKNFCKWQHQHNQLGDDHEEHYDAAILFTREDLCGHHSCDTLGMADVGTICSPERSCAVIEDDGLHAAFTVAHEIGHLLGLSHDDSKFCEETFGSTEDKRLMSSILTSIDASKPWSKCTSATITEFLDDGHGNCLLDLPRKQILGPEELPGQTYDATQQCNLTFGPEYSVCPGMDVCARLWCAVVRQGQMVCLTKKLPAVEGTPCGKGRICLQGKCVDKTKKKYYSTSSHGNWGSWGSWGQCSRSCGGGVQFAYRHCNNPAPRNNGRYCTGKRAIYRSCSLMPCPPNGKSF
The experiment in a line: Aggrecanase 2 in vitro enzyme assay (Agg-2 FRET, quenched fluorescent peptide substrate). The class given is biochemical. Also noted: purified recombinant human Aggrecanase-2 Agg2-Phe628 (MW=41,737); This is a truncated form of full-length human aggrecanase-2; made in house; host or cells: CHO cells. The conditions noted are these: for Agg-2 FRET Median PCT INHIB: concentration not given. As to the method: A continuous assay was used in which the substrate was a synthetic peptide containing a fluorescent group (o-aminobenzyl, Abz), which was quenched by energy transfer to a 2,4-dinitrophenyl group (Dnp). The buffer used in this assay was 50 mM HEPES, pH 7.5, 100 mM NaCl, 5 mM CaCl2, 0.1% CHAPS, 5% glycerol. The source of enzyme was purified recombinant human Aggrecanase-2 Agg2-Phe628 (MW=41,737). This is a truncated form of full-length human aggrecanase-2 that was expressed in CHO cells and purified. The final concentration of Agg2-Phe628 was 0.5 μg/ml. […] It is a synthetic peptide that is designed after a portion of brevican, one of the naturally occurring substrates of Aggrecanase-2, of the sequence Abz-[…]-Dap(Dnp)-KK—NH2 (mass=1740). The concentration of this substrate stock was spectrophotometrically determined using the extinction coefficient at 354 nm of 18,172 M^−1cm^−1. […] The final concentration of substrate in the assay was 25 μM.
Test compounds (in duplicate) were serially diluted from 2 mM to 0.01 μM in 100% DMSO. The total reaction volume was 100 μl. The buffer and enzyme were added first followed by addition of 10× inhibitor from the dilution plate. Enzyme and buffer alone samples were included in order to obtain the maximal rate of substrate cleavage. […] Then substrate was added, mixed and the reaction monitored for 40 min at 30° C. in kinetic mode using λex: 340 nm and % λem: 420 (GeminiXS Molecular Devices).

Where [2] appears, read: read-out: Agg-2 FRET Median IC50.

Several values for one entry are separate records, joined by “and”; a condition that tells them apart may be missing. Equal values may be shown once. Read-outs that look alike come from different tables or passages of the source.

For the compound `Cc1ccsc1C(NC(=O)COc1ccccc1)c1cc(Cl)c2cccnc2c1O` (stereo not drawn) [N-[(5-chloro-8-hydroxyquinolin-7-yl)(3-methyl-2-thienyl)methyl]-2-phenoxyacetamide], the inhibition at 33 µM on Agg-1 (@ 33000 nM, read-out: Agg1 %) was 33%. The IC50 in experiment [1] (read-out: Agg2 IC50) and in experiment [1] (setting [2]) was 1.37 µM throughout.
With `O=C(COc1ccccc1)NC(Cc1cc(Cl)c2cccnc2c1O)c1ccc2c(c1)OCO2` (stereo not drawn), the inhibition at 22 µM at Agg-1 (read-out: Agg-1 IC50 (μM) or % Inhibition) was found to be 67%. Moreover, the IC50 in experiment [1] (IC50, read-out: Agg-2 IC50 (μM) or % Inhibition) was 9.6 µM.
Regarding `COc1ccc2cc(C(NC(=O)COc3ccccc3)c3cc(Cl)c4cccnc4c3O)ccc2c1` (stereo not drawn) [Example 165, N-[(5-chloro-8-hydroxyquinolin-7-yl)(6-methoxy-2-naphthyl)methyl]-2-phenoxyacetamide], the inhibition at 22.2 µM on Agg-1 (read-out: Agg1 %) worked out at 50%. Besides, the half-inhibitory concentration (IC50) in experiment [1] (read-out: Agg2 IC50) is 2.3 µM.
Turning to `O=C(COc1ccccc1)NC(c1ccc([N+](=O)[O-])cc1)c1cc(Cl)c2cccnc2c1O` (stereo not drawn) [N-[(5-chloro-8-hydroxyquinolin-7-yl)(4-nitrophenyl)methyl]-2-phenoxyacetamide], the IC50 at Agg-1 is over 20000 nM.
In the case of `COc1ccccc1C(NC(=O)COc1ccccc1)c1cc(Cl)c2cccnc2c1O` (stereo not drawn) [Example 122, N-[(5-chloro-8-hydroxyquinolin-7-yl)(2-methoxyphenyl)methyl]-2-phenoxyacetamide], the inhibition at 667 µM on Agg-1 (@ 667000 nM, read-out: Agg1 %) was 48%. Also, the IC50 was 2.3 µM in experiment [1] (read-out: Agg2 IC50) and 2.34 µM in experiment [1] (setting [2]).
`CN(C)c1cc(C(NC(=O)COc2ccccc2)c2ccccc2)c(O)c2ncccc12` (stereo not drawn) [N-[[5-(dimethylamino)-8-hydroxyquinolin-7-yl](phenyl)methyl]-2-phenoxyacetamide]: the figures for the IC50 (on Agg-1; in experiment [1] (read-out: Agg2 IC50)) were about 25000 nM and 33.3 to 100 µM, respectively. For the same compound, in experiment [1], the “Agg-2 FRET Median PCT INHIB” value amounted to 58%.
In the case of `O=C(NC(Cc1ccccc1)c1cc(Cl)c2cccnc2c1O)OCc1ccccc1` (stereo not drawn) [benzyl [1-(5-chloro-8-hydroxyquinolin-7-yl)-2-phenylethyl]carbamate], the IC50 at Agg-1 is over 67000 nM; in experiment [1] (read-out: Agg2 IC50), over 28 µM.
Turning to `CCCCN(CCCC)c1ccc(C(NC(=O)COc2ccccc2)c2cc(Cl)c3cccnc3c2O)cc1` (stereo not drawn) [Example 136, N-{(5-chloro-8-hydroxyquinolin-7-yl)[4-(dibutylamino)phenyl]methyl}-2-phenoxyacetamide], the inhibition at 66.7 µM on Agg-1 (@ 66700 nM, read-out: Agg1 %) came to 40%. Also, in experiment [1] (@ 33300 nM), the inhibition at 33.3 µM was found to be 52%.
As for `O=C(COc1ccccc1)NC(c1cccc(OCc2ccccc2)c1)c1cc(Cl)c2cccnc2c1O` (stereo not drawn) [N-[[3-(benzyloxy)phenyl](5-chloro-8-hydroxyquinolin-7-yl)methyl]-2-phenoxyacetamide], the inhibition at 22.2 µM on Agg-1 (read-out: Agg1 %) is 47%. For the same compound, in experiment [1] (@ 3700 nM), the inhibition at 3.7 µM came to 48%.
Regarding `O=C(COc1ccccc1)N[C@@H](c1ccccc1Cl)c1cc(Cl)c2cccnc2c1O` [N-[(R)-(5-chloro-8-hydroxyquinolin-7-yl)(2-chlorophenyl)methyl]-2-phenoxyacetamide], on Agg-1 (read-out: Agg1 %), the inhibition at 22.2 µM was found to be 49%. For the same compound, the IC50 was 0.97 µM in experiment [1] (read-out: Agg2 IC50); 0.97 µM and 1.22 µM in experiment [1] (setting [2]).
Regarding `O=C(COc1ccc(Br)cc1)NC(c1ccccc1)c1cc(Cl)c2cccnc2c1O` (stereo not drawn) [Example 209, 2-(4-bromophenoxy)-N-[(5-chloro-8-hydroxyquinolin-7-yl)(phenyl)methyl]acetamide], the inhibition at […] at Agg-1 (@ 2500 nM, read-out: Agg1 %) is 44%. For the same compound, the IC50 in experiment [1] (read-out: Agg2 IC50) is 18 µM.
Turning to `O=C(COc1ccccc1)NC(c1ccccc1)c1cc(Cl)c2cccnc2c1O` (stereo not drawn) [N-[(5-chloro-8-hydroxyquinolin-7-yl)(phenyl)methyl]-2-phenoxyacetamide], at Agg-1, the IC50 is over 22000 nM.
As to `C=CCOc1ccc(C(NC(=O)COc2ccccc2)c2cc(Cl)c3cccnc3c2O)cc1` (stereo not drawn) [N-[[4-(allyloxy)phenyl](5-chloro-8-hydroxyquinolin-7-yl)methyl]-2-phenoxyacetamide], the inhibition at 22 µM on Agg-1 (@ 22000 nM, read-out: Agg1 %) turned out to be 52%.
Take `O=C(COc1ccccc1)NC(c1ccccc1Cl)c1cc([N+](=O)[O-])c2cccnc2c1O` (stereo not drawn) [N-[(2-chlorophenyl)(8-hydroxy-5-nitroquinolin-7-yl)methyl]-2-phenoxyacetamide]: the IC50 at Agg-1 was determined as 11400 nM.
Same read-out and setting: the result for `O=C(COc1ccccc1)NC(c1ccccc1)c1cc([N+](=O)[O-])c2cccnc2c1O` (stereo not drawn) [N-[(8-hydroxy-5-nitroquinolin-7-yl)(phenyl)methyl]-2-phenoxyacetamide] reads 19300 nM.
For the compound `COc1ccc(C(NC(=O)COc2ccc(Cl)c(C)c2)c2cc(Cl)c3cccnc3c2O)cc1` (stereo not drawn) [N-[(5-chloro-8-hydroxyquinolin-7-yl)(4-methoxyphenyl)methyl]-2-(4-chloro-3-methylphenoxy)acetamide], the “Agg-2 FRET Median PCT INHIB” value in experiment [1] stood at 57%.
In the case of `O=C(COc1ccccc1)NC(c1ccccc1F)c1cc(Cl)c2cccnc2c1O` (stereo not drawn) [N-[(5-chloro-8-hydroxyquinolin-7-yl)(2-fluorophenyl)methyl]-2-phenoxyacetamide], the inhibition at 22.2 µM on Agg-1 (read-out: Agg1 %) came out at 46%.
For the compound `Cc1cc(OCC(=O)NC(c2cccc([N+](=O)[O-])c2)c2cc(Cl)c3cccnc3c2O)ccc1Cl` (stereo not drawn) [N-[(5-chloro-8-hydroxyquinolin-7-yl)(3-nitrophenyl)methyl]-2-(4-chloro-3-methylphenoxy)acetamide], in experiment [1], the “Agg-2 FRET Median PCT INHIB” value came out at 53%.
As for `COc1ccc(OCC(=O)NC(c2ccccc2)c2cc(Cl)c3cccnc3c2O)cc1` (stereo not drawn) [N-[(5-chloro-8-hydroxyquinolin-7-yl)(phenyl)methyl]-2-(4-methoxyphenoxy)acetamide], the IC50 in experiment [1] (setting [2]) is 1.38 µM.
On the same count and under the same terms, the result for `O=C(COc1ccccc1)NC(c1ccc(Cl)c(Cl)c1)c1cc(Cl)c2cccnc2c1O` (stereo not drawn) [N-[(5-chloro-8-hydroxyquinolin-7-yl)(3,4-dichlorophenyl)methyl]-2-phenoxyacetamide] reads 1.36 µM.
The same measure, in the same setting: the result for `CN(C)c1ccc(C(NC(=O)COc2ccccc2)c2ccc3cccnc3c2O)cc1` (stereo not drawn) [Example 99, N-[[4-(dimethylamino)phenyl](8-hydroxyquinolin-7-yl)methyl]-2-phenoxyacetamide] reads 5.54 µM; that for `O=C(COc1ccccc1)NC(c1cccs1)c1cc(Cl)c2cccnc2c1O` (stereo not drawn) [N-[(5-chloro-8-hydroxyquinolin-7-yl)(2-thienyl)methyl]-2-phenoxyacetamide], 1.22 µM; that for `O=C(COc1ccccc1)NC(c1ccc(O)cc1Cl)c1cc(Cl)c2cccnc2c1O` (stereo not drawn) [N-[(2-chloro-4-hydroxyphenyl)(5-chloro-8-hydroxyquinolin-7-yl)methyl]-2-phenoxyacetamide], 1.94 µM.
Regarding `O=C(COc1ccccc1)NC(c1cccnc1)c1cc(Cl)c2cccnc2c1O` (stereo not drawn) [Example 69, N-[(5-chloro-8-hydroxyquinolin-7-yl)(pyridin-3-yl)methyl]-2-phenoxyacetamide], the IC50 in experiment [1] (setting [2]) came to 1.92 µM.
Still for that read-out and setting: the result for `O=C(CNc1cccnc1)NC(c1cccc(F)c1)c1cc(Cl)c2cccnc2c1O` (stereo not drawn) [Example 32, N^1-[(5-chloro-8-hydroxyquinolin-7-yl)(3-fluorophenyl)methyl]-N^2-pyridin-3-ylglycinamide] reads 15.1 µM.

In general, IC50 refers to the concentration at which inhibition is half-maximal.
